Test results published in patent US20210284691A1, “CBX8 CHROMDOMAIN INHIBITORS AND THE USES THEREOF” (Purdue Research Foundation, priority 2019, published 2021).
Square brackets hold non-standard residues; d marks the D form. Peptide text beside a SMILES is read from it. * marks the point of attachment. X2 = O=C(NCCCCn1cc(CN*)nn1)c1ccc2c(c1)C1(OC2=O)c2ccc(O)cc2Oc2cc(O)ccc21; Isoxazole3carbonyl(5-iPr) = CC(C)c1cc(C(=O)*)no1; Tyr(3-Cl) = N[C@@H](Cc1ccc(O)c(Cl)c1)C(=O)O; Gly(3-thienyl) = N[C@H](C(=O)O)c1ccsc1; Lys(Et2) = CCN(CC)CCCC[C@H](N)C(=O)O

Tests used:
CBX7 ChD = biological target: T1, CBX7 ChD (Homo sapiens, UniProt O95931); experiment: Direct fluorescence polarization (FP) binding assay
T1 construct: CBX chromodomain constructs; host or cells: E. coli BL21 CodonPlus RIL
T1 sequence (O95931 11-69 limits assumed): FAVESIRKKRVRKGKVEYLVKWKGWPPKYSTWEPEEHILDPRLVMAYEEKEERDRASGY
Method: CBX chromodomain constructs (addgene plasmid #25158 (CBX2), #25237 (CBX4), #25296 (CBX6), #25241 (CBX7) and #62514 (CBX8, provided by Cheryl Arrowsmith), Kaustov et al.) were transformed into chemically competent BL21 CodonPlus RIL E. coli cells (Stratagene, La Jolla, Calif.) as N-terminal His6-tagged proteins. Bacterial growth was completed at 37° C. in LB media to OD600=2.0, followed by reducing the temperature to 16° C. over 30-60 min and induced with 1 mM IPTG for 16 h. Cells were collected by centrifugation at 6000 rpm for 20 min and resuspended in ChD binding buffer (20 mM Tris, pH 8, 150 mM NaCl, 0.01% Tween-20, 20 mM imidazole) with 1.0 mM PMSF. Bacteria pellets were stored at −80° C. until needed. Pellets were thawed on ice for 10 min in ChD binding buffer, and shaked at 4° C. supplemented with 100 μg/mL lysozyme, 1 mg/mL CHAPS and 1 mM PMSF, for 30 min. Cells were subsequently lysed by sonication (15 W, 30 s on, followed by 30 s off, twice, followed by 20 W for 1 min). The solubilized fraction was collected by centrifugation at 15000 rpm for 40 min at 4° C. Meanwhile, Ni-NTA Agarose resin (QIAGEN, Venlo, Netherlands) was washed with H2O and equilibrated with ChD binding buffer. […] Protein purity was assessed by SDS-PAGE and concentration was determined by the Pierce 660 kit (Thermo Scientific).
Direct fluorescence polarization (FP) binding assay of PSL hits against PcG CBX ChDs. […]

CBX2 ChD = biological target: T2, CBX2 ChD (Homo sapiens, UniProt Q14781); experiment: as above
T2 construct: CBX chromodomain constructs; host or cells: E. coli BL21 CodonPlus RIL
T2 sequence (Q14781 12-70 limits assumed): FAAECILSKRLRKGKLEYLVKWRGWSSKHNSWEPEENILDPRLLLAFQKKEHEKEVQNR
Method: Bacterial growth was completed at 37° C. in LB media to OD600=2.0, followed by reducing the temperature to 16° C. over 30-60 min and induced with 1 mM IPTG for 16 h. Cells were collected by centrifugation at 6000 rpm for 20 min and resuspended in ChD binding buffer (20 mM Tris, pH 8, 150 mM NaCl, 0.01% Tween-20, 20 mM imidazole) with 1.0 mM PMSF. Bacteria pellets were stored at −80° C. until needed. Pellets were thawed on ice for 10 min in ChD binding buffer, and shaked at 4° C. supplemented with 100 μg/mL lysozyme, 1 mg/mL CHAPS and 1 mM PMSF, for 30 min. Cells were subsequently lysed by sonication (15 W, 30 s on, followed by 30 s off, twice, followed by 20 W for 1 min). The solubilized fraction was collected by centrifugation at 15000 rpm for 40 min at 4° C. Meanwhile, Ni-NTA Agarose resin (QIAGEN, Venlo, Netherlands) was washed with H2O and equilibrated with ChD binding buffer. The soluble fraction was incubated with the prewashed Ni-NTA agarose resin at 4° C. for 2 h. The resin was then washed 3× with ChD purification buffer (20 mM Tris, pH 8, 150 mM NaCl, 0.01% Tween-20, 1 mM PMSF). Proteins were eluted by the addition of 0.5 M imidazole to ChD purification buffer. The elution was diluted with 30% glycerol, flash frozen, and stored at −80° C. until needed. Protein purity was assessed by SDS-PAGE and concentration was determined by the Pierce 660 kit (Thermo Scientific).
Direct fluorescence polarization (FP) binding assay of PSL hits against PcG CBX ChDs. FP assays were conducted as above with slight modifications. Alkyne peptides described above were conjugated with a fluorescein group(5-/6-FAM) through copper catalyzed click reaction as previously described. The FAM-labeled peptide was kept constant at 100 nM. The CBX ChD proteins were titrated by 2-fold series dilutions in the assays. The highest protein concentrations, at which FAM-peptide was completely bound, used for each CBX in the direct binding assays depends on the binding affinity of the peptides. Assays were performed for each peptide in four replicates.

Work on `CC[C@H](C)[C@H](NC(=O)[C@@H](NC(=O)[C@H](Cc1ccc(O)c(Cl)c1)NC(=O)c1cc(C(C)C)on1)c1ccsc1)C(=O)N[C@@H](CCCCN(CC)CC)C(=O)N[C@@H](CO)C(=O)NCc1cn(CCCCNC(=O)c2ccc3c(c2)C2(OC3=O)c3ccc(O)cc3Oc3cc(O)ccc32)nn1` [SW2_104A-FL] ({Isoxazole3carbonyl(5-iPr)}-[Tyr(3-Cl)][Gly(3-thienyl)]I[Lys(Et2)]S-X2) yielded a Kd (CBX7 ChD) of 840 ± 380 nM and a Kd (CBX2 ChD) of 51 ± 36 nM.
